Laboratory results published in PMC10962542, “Inhibition of Aurora‐A/N‐Myc Protein–Protein Interaction Using Peptidomimetics: Understanding the Role of Peptide Cyclization” (Chembiochem, 2023).
Marks after values point to notes of the source that are not given here. Where a SMILES comes first, the peptide text is derived from it. Bridges are numbered along the chain shown (N, C = ends).

Experiments:
[1] = tested on: N‐Myc protein levels; conditions: cited from earlier work
Text: (§1) Similarly, Weiss and co‐workers developed a series of conformation‐disrupting Aurora‐A inhibitors based on diaminopyrimidine and pyrazolopyrimidine scaffolds, such as CD532.[8]

[2] = tested on: Aurora‐A and N‐Myc; conditions: in comparison to established allosteric Aurora‐A inhibitors; cited from earlier work
Text: as §1

[3] = tested on: N‐Myc/Aurora‐A interaction; conditions: competition co‐precipitation; cited from earlier work
Text: as §1

[4] = circular dichroism; design: unit not given here; conditions: 25 mM Tris, 150 mM NaCl, 5 mM MgCl2; pH 7.5; 5 °C; 30-120 uM
[5] = target: T1, N‐Myc/Aurora‐A interaction (Aurora‐A122‐403‐C290A/C393A) (Homo sapiens, UniProt O14965, C290A/C393A); test: competition fluorescence anisotropy (FA) assay against fluorescein labelled N‐Myc61‐89; format: binding; conditions: SD; also: equilibrated 2 h at room temperature
T1 construct: Aurora‐A 122‐403‐C290A/C393A protein was produced as described previously; made in house
T1 sequence (O14965 122-403 C290A/C393A): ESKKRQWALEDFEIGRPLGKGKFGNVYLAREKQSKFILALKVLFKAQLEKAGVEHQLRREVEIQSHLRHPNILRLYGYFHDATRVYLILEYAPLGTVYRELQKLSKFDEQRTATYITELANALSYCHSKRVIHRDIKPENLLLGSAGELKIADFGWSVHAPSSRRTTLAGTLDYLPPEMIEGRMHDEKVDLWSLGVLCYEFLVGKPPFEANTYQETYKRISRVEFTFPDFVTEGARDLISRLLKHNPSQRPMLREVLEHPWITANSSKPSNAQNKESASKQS

[6] = circular dichroism (CD) spectroscopy; format: physicochemical; conditions: 150 mM NaCl, 5 mM MgCl2, pH 7.5, 5 °C, n=2, free‐thiol (red) samples with 5 mol equivalents TCEP; for MRE222 (mean residue ellipticity at 222 nm): 25 mM Tris, mean ± SD, SD; for % Helicity (estimated): from MRE222 by equation 7, 25 mM Tris
Method in brief: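 Peptides at 30–120 μM in 25 mM Tris, 150 mM NaCl, 5 mM MgCl2, pH 7.5 (plus 5 mol eq. TCEP for free sulfhydryl peptides) were scanned in duplicate at 5 °C from 290 to 180 nm, 1 mm pathlength. Buffer-subtracted ellipticity gave mean residue ellipticity, and % helicity was estimated from MRE at 222 nm.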

Row | Compound | N‐Myc protein levels in xenographs [1] | degradation of Aurora‐A and N‐Myc [2] | disruption of the N‐Myc/Aurora‐A interaction [3] | helicity [4] | IC50 [5] [µM] | MRE222 (mean residue ellipticity at 222 nm) [6] | % Helicity (estimated) [6] [%]
1 | O=C(Nc1ccc(Nc2nccc(Nc3cc(C4CCCC4)[nH]n3)n2)cc1)Nc1cccc(C(F)(F)F)c1 [CD532] | reduced N‐Myc protein levels | – | – | – | – | – | –
2 | CN(C)C(=O)c1cc2cnc(Nc3ccc(C(=O)NCCCCCCOc4cccc5c4C(=O)N(C4CCC(=O)NC4=O)C5=O)cc3)nc2n1C1CCCC1 (stereo not drawn) [HLB‐0532259] | – | promote degradation of Aurora‐A and N‐Myc with superior potency | – | – | – | – | –
3 | O=C(O)c1ccc(Nc2ncc3c(n2)-c2ccc(Cl)cc2C(c2c(F)cccc2F)=NC3)cc1 [MLN8054] | – | – | disrupted | – | – | – | –
4 | CSCC[C@H](NC(=O)[C@H](CCC(=O)O)NC(=O)[C@@H](NC(=O)[C@@H](NC(=O)[C@H](Cc1c[nH]c2ccccc12)NC(=O)[C@H](CO)NC(=O)[C@@H]1CCCN1C(=O)[C@@H]1CCCN1C(=O)[C@H](CCC(=O)O)NC(C)=O)C(C)C)[C@@H](C)O)C(=O)N[C@@H](CC(C)C)C(=O)N[C@@H](CC(C)C)C(=O)N[C@@H](CCC(=O)O)C(=O)N[C@H]1CSSC[C@@H](C(=O)N[C@@H](CO)C(=O)N2CCC[C@H]2C(=O)N[C@@H](C)C(=O)N[C@@H](CCC(=O)O)C(=O)N[C@@H](CCC(=O)O)C(N)=O)NC(=O)[C@H](Cc2c[nH]c3ccccc23)NC(=O)[C@H](CC(C)C)NC(=O)[C@H](CCC(=O)O)NC1=O [N‐Myc73‐94‐N85C/G89C (ox)] (Ac-EPPSWVTEMLLECELWCSPAEE-NH2; disulfide 13-17) | – | – | – | -5260 | 130 ± 9 | −5255±217 deg cm^−1 dmol^−1 res^−1 | 15±1
5 | CSCC[C@H](NC(=O)[C@H](CCC(=O)O)NC(=O)[C@@H](NC(=O)[C@@H](NC(=O)[C@H](Cc1c[nH]c2ccccc12)NC(=O)[C@H](CO)NC(=O)[C@@H]1CCCN1C(=O)[C@@H]1CCCN1C(=O)[C@H](CCC(=O)O)NC(C)=O)C(C)C)[C@@H](C)O)C(=O)N[C@@H](CC(C)C)C(=O)N[C@@H](CC(C)C)C(=O)N[C@@H](CCC(=O)O)C(=O)N[C@@H](CS)C(=O)N[C@@H](CCC(=O)O)C(=O)N[C@@H](CC(C)C)C(=O)N[C@@H](Cc1c[nH]c2ccccc12)C(=O)N[C@@H](CS)C(=O)N[C@@H](CO)C(=O)N1CCC[C@H]1C(=O)N[C@@H](C)C(=O)N[C@@H](CCC(=O)O)C(=O)N[C@@H](CCC(=O)O)C(N)=O [N‐Myc73‐94‐N85C/G89C (red)] (Ac-EPPSWVTEMLLECELWCSPAEE-NH2) | – | – | – | -4380 | 123 ± 10 | −4383±64^[e] deg cm^−1 dmol^−1 res^−1 | 13±1
6 | Ac-SWVTEMLLENELWG-NH2 [N‐Myc76‐89] | – | – | – | -4340 | 215 ± 11 | −4342±142 deg cm^−1 dmol^−1 res^−1 | 14±1
